Assays:
Format in all cases: in vivo
Parameters in all cases: scale not given here
[1] = tested on: Abutilon theophrasti medicus; assay: Herbicidal effects in upland field soil treatment (Test Example 2); details: 1000 g active ingredient per hectare, 21st day after treatment, criteria of Table 138
In short: (§1)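 Seeds sown in upland soil and covered; surface sprayed with water-diluted wettable powder, 1000 g a.i./ha, spray volume 1000 L/ha. Greenhouse growth, visual herbicidal rating at day 21.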

[2] = tested on: Amaranthus viridis L.; assay: as above; details: 1000 g active ingredient per hectare, 21st day after treatment, criteria of Table 138
In short: as §1

[3] = tested on: Echinochloa crus-galli (L.) P. Beauv. var. crus-galli; assay: Herbicidal effects in upland field foliar treatment (Test Example 3); details: criteria of Table 138; for herbicidal effects on Echinochloa crus-galli (L.) P. Beauv. var. crus-galli: 1000 g of the active ingredient per hectare, 14th day after the treatment, wettable powder; for herbicidal effect (index) on Echinochloa crus-galli (L.) P. Beauv. var. crus-galli: 1000 g active ingredient per hectare, 14th day after treatment
In short: (§2)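 Greenhouse pot test, upland soil; 2-wk-old plants sprayed from above with water-diluted wettable powder (1000 L/ha spray volume, 1000 g a.i./ha). Regrown in greenhouse; visual herbicidal score on day 14 post-treatment.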

[4] = tested on: Abutilon theophrasti medicus; assay: as above; details: criteria of Table 138; for herbicidal effects on Abutilon theophrasti medicus: 1000 g of the active ingredient per hectare, 14th day after the treatment, wettable powder; for herbicidal effect (index) on Abutilon theophrasti medicus: 1000 g active ingredient per hectare, 14th day after treatment
In short: as §2

[5] = tested on: Amaranthus viridis L.; assay: as above; details: criteria of Table 138; for herbicidal effects on Amaranthus viridis L.: 1000 g of the active ingredient per hectare, 14th day after the treatment, wettable powder; for herbicidal effect (index) on Amaranthus viridis L.: 1000 g active ingredient per hectare, 14th day after treatment
In short: as §2

[6] = tested on: Scirpus juncoides Roxb. var. ohwianus. T. Koyama; assay: Herbicidal effects in paddy field soil treatment (Test Example 1); details: for Herbicidal effects index, Scirpus juncoides Roxb. var. ohwianus. T. Koyama: paddy field soil treatment, 1000 g of the active ingredient per hectare, wettable powder added dropwise on water surface, 21st day after treatment
In short: (§3)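 Paddy soil pre-emergence test: seeds sown, flooded 3 cm; next day wettable powder in water applied dropwise to water surface, 1000 g a.i./ha; greenhouse; effect rated visually on scale at 21 d post-treatment.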

[7] = tested on: Monochoria vaginalis (Burm. f.) Presl var. plantaginea (Roxb.) Solms-Laub.; assay: as above; details: for Herbicidal effects index, Monochoria vaginalis (Burm. f.) Presl var. plantaginea (Roxb.) Solms-Laub.: paddy field soil treatment, 1000 g of the active ingredient per hectare, wettable powder added dropwise on water surface, 21st day after treatment
In short: as §3

[8] = tested on: Echinochloa oryzicola Vasing; assay: as above; details: for Herbicidal effects index, Echinochloa oryzicola Vasing: paddy field soil treatment, 1000 g of the active ingredient per hectare, wettable powder added dropwise on water surface, 21st day after treatment
In short: as §3

[9] = paddy field soil treatment (Test Example 1), criteria of Table 138

For `Cc1cccc(-n2c(=O)c(C(=O)C3=C(O)CCCC3=O)nc3cccnc32)c1` [IV-20], the “herbicidal effect (index) on Abutilon theophrasti medicus” value [1] was 5, the “herbicidal effect (index) on Amaranthus viridis L.” value [2] was 5 and the “herbicidal effects on Echinochloa crus-galli (L.) P. Beauv. var. crus-galli” value [3] was 5. The “herbicidal effects on Abutilon theophrasti medicus” value [4] was 5, the “herbicidal effects on Amaranthus viridis L.” value [5] was 5 and the “Herbicidal effects index, Scirpus juncoides Roxb. var. ohwianus. T. Koyama” value [6] was 5. The “Herbicidal effects index, Monochoria vaginalis (Burm. f.) Presl var. plantaginea (Roxb.) Solms-Laub.” value (“Herbicidal effects index … (Roxb.) Solms-Laub.” for short) [7] was 5 and the “Herbicidal effects index, Echinochloa oryzicola Vasing” value [8] was 5.

With `O=C1CCCC(O)=C1C(=O)c1nc2cccnc2n(-c2ccc(C3CC3)cc2)c1=O` [IV-33] the “herbicidal effect (index) on Abutilon theophrasti medicus” value [1] was 5, the “herbicidal effect (index) on Amaranthus viridis L.” value [2] was 5 and the “herbicidal effects on Echinochloa crus-galli (L.) P. Beauv. var. crus-galli” value [3] was 5. The “herbicidal effects on Abutilon theophrasti medicus” value [4] was 5, the “herbicidal effects on Amaranthus viridis L.” value [5] was 5 and the “Herbicidal effects index, Scirpus juncoides Roxb. var. ohwianus. T. Koyama” value [6] was 5. For the same molecule, the “Herbicidal effects index … (Roxb.) Solms-Laub.” value [7] was 5 and the “Herbicidal effects index, Echinochloa oryzicola Vasing” value [8] was 5.

`COCC(C)n1c(=O)c(C(=O)C2=C(O)CCCC2=O)nc2ccccc21` (stereo not drawn) [Compound I-90] was tested, and the “herbicidal effect (index) on Abutilon theophrasti medicus” value [1] was 5, the “herbicidal effect (index) on Amaranthus viridis L.” value [2] was 5 and the “herbicidal effect (index) on Echinochloa crus-galli (L.) P. Beauv. var. crus-galli” value [3] was 5. For the same molecule, the “herbicidal effect (index) on Abutilon theophrasti medicus” value [4] was 5, the “herbicidal effect (index) on Amaranthus viridis L.” value [5] was 5 and the “Herbicidal effects index, Scirpus juncoides Roxb. var. ohwianus. T. Koyama” value [6] was 5. The “Herbicidal effects index … (Roxb.) Solms-Laub.” value [7] was 5 and the “Herbicidal effects index, Echinochloa oryzicola Vasing” value [8] was 5.

In the case of `O=C1CCCC(O)=C1C(=O)c1nc2cccnc2n(-c2ccccc2Cl)c1=O` [IV-9], the “herbicidal effect (index) on Abutilon theophrasti medicus” value [1] is reported as 5, the “herbicidal effect (index) on Amaranthus viridis L.” value [2] is reported as 5 and the “herbicidal effects on Echinochloa crus-galli (L.) P. Beauv. var. crus-galli” value [3] is reported as 5. For the same molecule, the “herbicidal effects on Abutilon theophrasti medicus” value [4] was 5, the “herbicidal effects on Amaranthus viridis L.” value [5] was 5 and the “Herbicidal effects index, Scirpus juncoides Roxb. var. ohwianus. T. Koyama” value [6] was 5. For the same molecule, the “Herbicidal effects index … (Roxb.) Solms-Laub.” value [7] was 5 and the “Herbicidal effects index, Echinochloa oryzicola Vasing” value [8] was 5.

With `Cc1cccnc1-n1c(=O)c(C(=O)C2=C(O)CCCC2=O)nc2ccccc21` [I-272] the “herbicidal effect (index) on Abutilon theophrasti medicus” value [1] was 5, the “herbicidal effect (index) on Amaranthus viridis L.” value [2] was 5 and the “herbicidal effect (index) on Echinochloa crus-galli (L.) P. Beauv. var. crus-galli” value [3] was 5. The “herbicidal effect (index) on Abutilon theophrasti medicus” value [4] was 5, the “herbicidal effect (index) on Amaranthus viridis L.” value [5] was 5 and the “Herbicidal effects index, Scirpus juncoides Roxb. var. ohwianus. T. Koyama” value [6] was 5. For the same molecule, the “Herbicidal effects index … (Roxb.) Solms-Laub.” value [7] was 5 and the “Herbicidal effects index, Echinochloa oryzicola Vasing” value [8] was 5.

In the case of `COc1ccccc1-n1c(=O)c(C(=O)C2=C(O)CCCC2=O)nc2cccnc21` [IV-52], the “herbicidal effect (index) on Abutilon theophrasti medicus” value [1] is reported as 5, the “herbicidal effect (index) on Amaranthus viridis L.” value [2] is reported as 4 and the “herbicidal effects on Echinochloa crus-galli (L.) P. Beauv. var. crus-galli” value [3] is reported as 5. For the same molecule, the “herbicidal effects on Abutilon theophrasti medicus” value [4] was 5, the “herbicidal effects on Amaranthus viridis L.” value [5] was 5 and the “herbicidal effect (index) on Scirpus juncoides Roxb. var. ohwianus. T. Koyama” value [6, 9] was 5. For the same molecule, the “herbicidal effect (index) on Monochoria vaginalis (Burm. f.) Presl var. plantaginea (Roxb.) Solms-Laub.” value [7, 9] was 5 and the “herbicidal effect (index) on Echinochloa oryzicola Vasing” value [8, 9] was 5.

For `CC1=NOC(Cn2c(=O)c(C(=O)C3=C(O)CCCC3=O)nc3ccccc32)C1` (stereo not drawn) [I-212], the “herbicidal effect (index) on Abutilon theophrasti medicus” value [1] was 5, the “herbicidal effect (index) on Amaranthus viridis L.” value [2] was 5 and the “herbicidal effect (index) on Echinochloa crus-galli (L.) P. Beauv. var. crus-galli” value [3] was 5. For the same molecule, the “herbicidal effect (index) on Abutilon theophrasti medicus” value [4] was 4, the “herbicidal effect (index) on Amaranthus viridis L.” value [5] was 5 and the “Herbicidal effects index, Scirpus juncoides Roxb. var. ohwianus. T. Koyama” value [6] was 5. The “Herbicidal effects index … (Roxb.) Solms-Laub.” value [7] was 5 and the “Herbicidal effects index, Echinochloa oryzicola Vasing” value [8] was 5.

In the case of `COc1ccc(-n2c(=O)c(C(=O)C3=C(O)CCCC3=O)nc3cc(F)c(OC)cc32)cc1` [II-263], the “herbicidal effect (index) on Abutilon theophrasti medicus” value [1] is reported as 4, the “herbicidal effect (index) on Amaranthus viridis L.” value [2] is reported as 5 and the “herbicidal effects on Echinochloa crus-galli (L.) P. Beauv. var. crus-galli” value [3] is reported as 5. For the same molecule, the “herbicidal effects on Abutilon theophrasti medicus” value [4] was 4, the “herbicidal effects on Amaranthus viridis L.” value [5] was 5 and the “Herbicidal effects index, Scirpus juncoides Roxb. var. ohwianus. T. Koyama” value [6] was 5. The “Herbicidal effects index … (Roxb.) Solms-Laub.” value [7] was 5 and the “Herbicidal effects index, Echinochloa oryzicola Vasing” value [8] was 5.

For `CCOc1cccc(-n2c(=O)c(C(=O)C3=C(O)CCCC3=O)nc3ccccc32)c1` [II-68], the “herbicidal effect (index) on Abutilon theophrasti medicus” value [1] was 5, the “herbicidal effect (index) on Amaranthus viridis L.” value [2] was 5 and the “herbicidal effects on Echinochloa crus-galli (L.) P. Beauv. var. crus-galli” value [3] was 5. The “herbicidal effects on Abutilon theophrasti medicus” value [4] was 5, the “herbicidal effects on Amaranthus viridis L.” value [5] was 5 and the “Herbicidal effects index, Scirpus juncoides Roxb. var. ohwianus. T. Koyama” value [6] was 5. For the same molecule, the “Herbicidal effects index … (Roxb.) Solms-Laub.” value [7] was 5 and the “Herbicidal effects index, Echinochloa oryzicola Vasing” value [8] was 5.

In the case of `Cn1nc(C(F)(F)F)cc1-n1c(=O)c(C(=O)C2=C(O)CCCC2=O)nc2ccccc21` [I-158], the “herbicidal effect (index) on Abutilon theophrasti medicus” value [1] is reported as 5, the “herbicidal effect (index) on Amaranthus viridis L.” value [2] is reported as 5 and the “herbicidal effect (index) on Echinochloa crus-galli (L.) P. Beauv. var. crus-galli” value [3] is reported as 5. For the same molecule, the “herbicidal effect (index) on Abutilon theophrasti medicus” value [4] was 5, the “herbicidal effect (index) on Amaranthus viridis L.” value [5] was 5 and the “Herbicidal effects index, Scirpus juncoides Roxb. var. ohwianus. T. Koyama” value [6] was 5. The “Herbicidal effects index … (Roxb.) Solms-Laub.” value [7] was 5 and the “Herbicidal effects index, Echinochloa oryzicola Vasing” value [8] was 5.

In the case of `N#CCn1c(=O)c(C(=O)C2=C(O)CCCC2=O)nc2ccccc21` [Compound I-102], the “herbicidal effect (index) on Abutilon theophrasti medicus” value [1] is reported as 5, the “herbicidal effect (index) on Amaranthus viridis L.” value [2] is reported as 5 and the “herbicidal effect (index) on Echinochloa crus-galli (L.) P. Beauv. var. crus-galli” value [3] is reported as 5. For the same molecule, the “herbicidal effect (index) on Abutilon theophrasti medicus” value [4] was 5, the “herbicidal effect (index) on Amaranthus viridis L.” value [5] was 5 and the “Herbicidal effects index, Scirpus juncoides Roxb. var. ohwianus. T. Koyama” value [6] was 5. The “Herbicidal effects index … (Roxb.) Solms-Laub.” value [7] was 4 and the “Herbicidal effects index, Echinochloa oryzicola Vasing” value [8] was 5.

In the case of `O=C1CCCC(O)=C1C(=O)c1nc2cccnc2n(-c2ccc(Cl)cc2)c1=O` [IV-13], the “herbicidal effect (index) on Abutilon theophrasti medicus” value [1] is reported as 5, the “herbicidal effect (index) on Amaranthus viridis L.” value [2] is reported as 5 and the “herbicidal effects on Echinochloa crus-galli (L.) P. Beauv. var. crus-galli” value [3] is reported as 5. For the same molecule, the “herbicidal effects on Abutilon theophrasti medicus” value [4] was 5, the “herbicidal effects on Amaranthus viridis L.” value [5] was 5 and the “Herbicidal effects index, Scirpus juncoides Roxb. var. ohwianus. T. Koyama” value [6] was 5. The “Herbicidal effects index … (Roxb.) Solms-Laub.” value [7] was 5 and the “Herbicidal effects index, Echinochloa oryzicola Vasing” value [8] was 5.

In the case of `CC(C)n1c(=O)c(C(=O)C2=C(O)CCCC2=O)nc2cccnc21` [III-13], the “herbicidal effect (index) on Abutilon theophrasti medicus” value [1] is reported as 5, the “herbicidal effect (index) on Amaranthus viridis L.” value [2] is reported as 5 and the “herbicidal effects on Echinochloa crus-galli (L.) P. Beauv. var. crus-galli” value [3] is reported as 4. The “herbicidal effects on Abutilon theophrasti medicus” value [4] was 5, the “herbicidal effects on Amaranthus viridis L.” value [5] was 5 and the “Herbicidal effects index, Scirpus juncoides Roxb. var. ohwianus. T. Koyama” value [6] was 5. For the same molecule, the “Herbicidal effects index … (Roxb.) Solms-Laub.” value [7] was 5 and the “Herbicidal effects index, Echinochloa oryzicola Vasing” value [8] was 5.

In the case of `O=C(C1=C(O)C2CCC(C2)C1=O)c1nc2ccccc2n(-c2ccccc2)c1=O` (stereo not drawn) [II-4], the “herbicidal effect (index) on Abutilon theophrasti medicus” value [1] is reported as 4, the “herbicidal effect (index) on Amaranthus viridis L.” value [2] is reported as 5 and the “herbicidal effect (index) on Echinochloa crus-galli (L.) P. Beauv. var. crus-galli” value [3] is reported as 4. The “herbicidal effect (index) on Abutilon theophrasti medicus” value [4] was 5, the “herbicidal effect (index) on Amaranthus viridis L.” value [5] was 5 and the “Herbicidal effects index, Scirpus juncoides Roxb. var. ohwianus. T. Koyama” value [6] was 5. The “Herbicidal effects index … (Roxb.) Solms-Laub.” value [7] was 5 and the “Herbicidal effects index, Echinochloa oryzicola Vasing” value [8] was 5.

With `O=C1CCCC(O)=C1C(=O)c1nc2ccccc2n(-c2nccs2)c1=O` [I-159] the “herbicidal effect (index) on Abutilon theophrasti medicus” value [1] was 5, the “herbicidal effect (index) on Amaranthus viridis L.” value [2] was 5 and the “herbicidal effect (index) on Echinochloa crus-galli (L.) P. Beauv. var. crus-galli” value [3] was 4. The “herbicidal effect (index) on Abutilon theophrasti medicus” value [4] was 5, the “herbicidal effect (index) on Amaranthus viridis L.” value [5] was 5 and the “Herbicidal effects index, Scirpus juncoides Roxb. var. ohwianus. T. Koyama” value [6] was 5. For the same molecule, the “Herbicidal effects index … (Roxb.) Solms-Laub.” value [7] was 5 and the “Herbicidal effects index, Echinochloa oryzicola Vasing” value [8] was 5.

Reference: US8389523B2, “Substituted quinoxaline and an agrochemical composition thereof” (Kumiai Chemical Industry Co., Ltd., priority 2007, dated 2013)
